Results on 22 molecules are retold here after patent US20220324803A1 (Teon Therapeutics, Inc., priority 2019, published 2022).

T1 sequence (P35408 whole entry): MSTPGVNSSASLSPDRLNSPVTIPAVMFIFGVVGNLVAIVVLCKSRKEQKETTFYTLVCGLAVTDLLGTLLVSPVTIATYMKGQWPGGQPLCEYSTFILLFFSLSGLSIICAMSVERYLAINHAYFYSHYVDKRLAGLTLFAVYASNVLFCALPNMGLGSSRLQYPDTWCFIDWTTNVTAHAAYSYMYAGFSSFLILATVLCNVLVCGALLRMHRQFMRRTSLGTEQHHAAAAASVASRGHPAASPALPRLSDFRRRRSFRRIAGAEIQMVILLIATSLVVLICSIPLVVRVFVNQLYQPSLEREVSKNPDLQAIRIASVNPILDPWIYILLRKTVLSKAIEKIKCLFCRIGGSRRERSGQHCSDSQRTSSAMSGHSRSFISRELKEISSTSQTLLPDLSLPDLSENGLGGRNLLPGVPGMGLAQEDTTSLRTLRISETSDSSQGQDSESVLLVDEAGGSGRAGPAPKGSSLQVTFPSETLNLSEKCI

This assay concerns the target T1, human Prostanoid EP4 Receptor (EP4) (Homo sapiens, UniProt P35408).
T1 construct: expressed in transfected cells; host or cells: HEK293 (G418 selection); membranes prepared by differential centrifugation
In words: Prostanoid EP4 binding assay (3H-prostaglandin E2 displacement, cell membranes). The settings on record: HEK293 cell membranes with human EP4, 3H-prostaglandin E2, 24° C. The method, then:
HEK293 cells transfected with human Prostanoid EP4 Receptor (EP4) are maintained in DMEM supplemented with L-Glutamine, 10% FBS and 300 μg/ml G418. Cells are harvested and membranes prepared by differential centrifugation, following lysis of the cells in the presence of protease inhibitors, for use in the receptor binding assay. EP4 binding assay is performed in 50 mM HEPES pH7.4, 5 mM MgCl2, 1 mM CaCl2) and 0.2% BSA. Testing compounds are diluted with DMSO to make 8-point 4-fold serial dilution. Cell membrane homogenates are incubated at 24° C. with ^3H-prostaglandin E2 in the absence or presence of the testing compound in assay buffer. Nonspecific binding (Low control: LC) and total binding (High control: HC) are determined in the presence or absence of saturated cold ligand Prostaglandin E2 (PGE2). Specific binding is calculated by subtracting nonspecific binding from total binding. When binding assays are completed, the reaction mixture is filtered rapidly under vacuum through glass fiber filters (GF/C, Packard) presoaked with 0.5% BSA for at least 0.5 hour at room temperature and then washed for 4 times with cold wash buffer (50 mM HEPES pH7.4, 500 mM NaCl, 0.1% BSA) using a 96-sample Perkin Elmer Filtermate Harvester (Unifilter, Packard). The filters are dried for 1 hour at 50 degrees then counted for radioactivity in a scintillation counter using Perkin Elmer Microscint 20 cocktail. ^3H trapped on filter is counted using Perkin Elmer MicroBeta2 Reader. Inhibition is calculated using following equation: % Inhibition=(1−(Assay well−Average_LC)/(Average_HC−Average_LC))×100%. The results are expressed as a percent inhibition of the control radioligand specific binding. Data are analyzed and IC50 is calculated using GraphPad Prism 5 and the model “log(inhibitor) vs. response—Variable slope”. The binding affinity of the compounds is determined by using the Cheng and Prusoff equation Ki=IC50/(1+[radioligand]/Kd).
Molecule `CCn1cc(C(=O)N[C@@H](C)c2ccc(C(=O)O)cc2)c2c(Cc3ccc(C(F)(F)F)cc3)ccnc21` [Compound 46, 4-[(1S)-1-[[1-ethyl-4-[[4-(trifluoromethyl)phenyl]methyl]-pyrrolo[2,3-b]pyridine-3-carbonyl]amino]ethyl]benzoic acid] displayed a Ki below 100 nM.

`O=C(Nc1ccc(C2(C(=O)O)CC2)cc1)c1cnn2cccc(Cc3ccc(C(F)(F)F)cc3)c12` [Compound 31, 1-[4-[[4-[[4-(trifluoromethyl)phenyl]methyl]pyrazolo[1,5-a]pyridine-3-carbonyl]amino]phenyl]cyclopropanecarboxylic acid] gave an inhibition constant (Ki) above 500 nM.

`C[C@H](NC(=O)c1cn(CCF)c2nccc(Cc3ccc(C(F)(F)F)cc3)c12)c1ccc(C(=O)O)cc1` [Compound 47, 4-[(1S)-1-[[1-(2-fluoroethyl)-4-[[4-(trifluoromethyl)phenyl]methyl]pyrrolo[2,3-b]pyridine-3-carbonyl]amino]ethyl]benzoic acid] had a Ki below 100 nM.

In turn, `O=C(NC[C@H]1CC[C@H](C(=O)O)CC1)c1cnn2cccc(Cc3ccc(C(F)(F)F)cc3)c12` [Compound 40, (1r,4r)-4-[[[4-[[4-(trifluoromethyl)phenyl]methyl]pyrazolo[1,5-a]pyridine-3-carbonyl]amino]methyl]cyclohexanecarboxylic acid] yielded a Ki below 100 nM.

In the case of `CCn1cc(C(=O)NC23CC(CC(=O)O)(C2)C3)c2c(Cc3ccc(C(F)(F)F)cc3)cccc21` [Compound 51, 2-[3-[[1-ethyl-4-[[4-(trifluoromethyl)phenyl]methyl]indole-3-carbonyl]amino]-1-bicyclo[1.1.1]pentanyl]acetic acid], the Ki was below 100 nM.

The molecule `CCn1cc(C(=O)N[C@@H](C)c2ccc(C(=O)O)cc2)c2c(Cc3ccc(C(F)(F)F)cc3)cccc21` [Compound 42, 4-[(1S)-1-[[1-ethyl-4-[[4-(trifluoromethyl)phenyl]methyl]indole-3-carbonyl]amino]ethyl]benzoic acid] showed a Ki below 100 nM.

For `C[C@@H](NC(=O)c1cnn2cccc(Cc3ccc(C(F)(F)F)cc3)c12)c1ccc(C(=O)O)cc1` [Compound 27, 4-[(1R)-1-[[4-[[4-(trifluoromethyl)phenyl]methyl]pyrazolo[1,5-a]pyridine-3-carbonyl]amino]ethyl]benzoic acid], the inhibition constant Ki is below 100 nM.

`O=C(O)CC12CC(NC(=O)c3ncn4cccc(Cc5ccc(C(F)(F)F)cc5)c34)(C1)C2` [Compound 17, 2-[3-[[8-[[4-(trifluoromethyl)phenyl]methyl]imidazo[1,5-a]pyridine-1-carbonyl]amino]-1-bicyclo[1.1.1]pentanyl]acetic acid] showed a Ki of 100 to 499 nM.

Turning to `C[C@H](NC(=O)c1cn(CCF)c2cccc(Cc3ccc(C(F)(F)F)cc3)c12)c1ccc(C(=O)O)cc1` [Compound 43, 4-[(1S)-1-[[1-(2-fluoroethyl)-4-[[4-(trifluoromethyl)phenyl]methyl]indole-3-carbonyl]amino]ethyl]benzoic acid], the Ki is below 100 nM.

Turning to `CC(C)Cn1nc(C(=O)N[C@@H](C)c2ccc(C(=O)O)cc2)c2c(Cc3ccc(C(F)(F)F)cc3)cccc21` [Compound 23, 4-[(1S)-1-[[1-isobutyl-4-[[4-(trifluoromethyl)phenyl]methyl]indazole-3-carbonyl]amino]ethyl]benzoic acid], the Ki was below 100 nM.

The molecule `O=C(NC1CC2(C1)CC(C(=O)O)C2)c1cn(CCF)c2nccc(Cc3ccc(C(F)(F)F)cc3)c12` (stereo not drawn) [Compound 48, trans-2-[[1-(2-fluoroethyl)-4-[[4-(trifluoromethyl)phenyl]methyl]-pyrrolo[2,3-b]pyridine-3-carbonyl]amino]spiro[3.3]heptane-6-carboxylic acid] registered a Ki below 100 nM.

`O=C(N[C@H]1CC2(C1)C[C@H](C(=O)O)C2)c1ncn2cccc(Cc3ccc(C(F)(F)F)cc3)c12` (single isomer, unassigned) [Compound 6B, trans-2-[[8-[[4-(trifluoromethyl)phenyl]methyl]imidazo[1,5-a]pyridine-1-carbonyl]amino]spiro[3.3]heptane-6-carboxylic acid] showed a Ki below 100 nM.

`O=C(O)C[C@H]1CC[C@H](NC(=O)c2cnn3cccc(Cc4ccc(C(F)(F)F)cc4)c23)CC1` [Compound 38, 2-((1r,4r)-4-(4-(4-(trifluoromethyl)benzyl)pyrazolo[1,5-a]pyridine-3-carboxamido)cyclohexyl)acetic acid] gave a Ki below 100 nM.

The molecule `CCn1cc(C(=O)NC23CC(CC(=O)O)(C2)C3)c2c(Cc3ccc(C(F)(F)F)cc3)ccnc21` [Compound 53] returned a Ki below 100 nM.

The molecule `O=C(O)CC1CCC(NC(=O)c2cnn3cccc(Cc4ccc(C(F)(F)F)cc4)c23)CC1` (stereo not shown) [Compound 34, 2-[4-[[4-[[4-(trifluoromethyl)phenyl]methyl]pyrazolo[1,5-a]pyridine-3-carbonyl]amino]cyclohexyl]acetic acid] showed a Ki below 100 nM.

`O=C(O)C[C@H]1CC[C@H](NC(=O)c2cn(CCF)c3nccc(Cc4ccc(C(F)(F)F)cc4)c23)CC1` [Compound 57, 2-[(1r,4r)-4-[[1-(2-fluoroethyl)-4-[[4-(trifluoromethyl)-phenyl]methyl]pyrrolo[2,3-b]pyridine-3-carbonyl]amino]cyclohexyl]acetic acid]: the Ki was below 100 nM.

For `O=C(N[C@H]1CC2(C1)C[C@H](C(=O)O)C2)c1cn(CCF)c2cccc(Cc3ccc(C(F)(F)F)cc3)c12` (stereo partly drawn) [Compound 44, trans-2-[[1-(2-fluoroethyl)-4-[[4-(trifluoromethyl)phenyl]methyl]-indole-3-carbonyl]amino]spiro[3.3]heptane-6-carboxylic acid], the Ki was below 100 nM.

For `CC(C)Cn1nc(C(=O)N[C@H]2CC3(C2)C[C@H](C(=O)O)C3)c2c(Cc3ccc(C(F)(F)F)cc3)cccc21` (stereo partly drawn) [Compound 24, trans-2-[[1-isobutyl-4-[[4-(trifluoromethyl)phenyl]methyl]indazole-3-carbonyl]amino]spiro[3.3]heptane-6-carboxylic acid], the Ki was below 100 nM.

In the case of `C[C@H](NC(=O)c1ncn2cccc(Cc3ccc(C(F)(F)F)cc3)c12)c1ccc(C(=O)O)cc1` [Compound 5, 4-[(1S)-1-[[8-[[4-(trifluoromethyl)phenyl]methyl]imidazo[1,5-a]pyridine-1-carbonyl]amino]ethyl]benzoic acid], the Ki fell in the range of 100 to 499 nM.

Molecule `CC(C)n1nc2cccc(Cc3ccc(C(F)(F)F)cc3)c2c1C(=O)N[C@@H](C)c1ccc(C(=O)O)cc1` [Compound 29, 4-[(1S)-1-[[2-isopropyl-4-[[4-(trifluoromethyl)phenyl]methyl]indazole-3-carbonyl]amino]ethyl]benzoic acid] had a Ki below 100 nM.

For the molecule `O=C(N[C@H]1CC[C@@H](C(=O)O)CC1)c1cnn2cccc(Cc3ccc(C(F)(F)F)cc3)c12` [Compound 32, (1s,4s)-4-[[4-[[4-(trifluoromethyl)phenyl]methyl]pyrazolo[1,5-a]pyridine-3-carbonyl]amino]cyclohexanecarboxylic acid], the Ki is above 500 nM.

On to `CC(C)Cn1nc(C(=O)NC23CC(CC(=O)O)(C2)C3)c2c(Cc3ccc(C(F)(F)F)cc3)cccc21` [Compound 25, 2-[3-[[1-isobutyl-4-[[4-(trifluoromethyl)phenyl]methyl]indazole-3-carbonyl]amino]-1-bicyclo[1.1.1]pentanyl]acetic acid], for which the Ki is below 100 nM.

A word on the Ki: it is the dissociation constant of the complex between target and ligand, obtained from inhibition or displacement. A high value points to weaker binding.
